Measured values published in US20030083227A1, “Novel combination therapy to treat glaucoma” (priority 1999, published 2003).

How the values were obtained:
[1] = system: mouse IOP; assay: Mouse IOP measured with the Servo-Null Micropipette System (SNMS); format: in vivo; details: for ΔIOP (after 1st drug): vs previous period; for effect on IOP: alone; for ΔIOP after base (1st drug): sequential study; for minimally effective droplet concentration: lowering of mouse IOP
Description: Black Swiss outbred mice of mixed sex, 7 to 9 weeks old and approximately 30 g in weight, were obtained from Taconic, Inc. (Germantown, N.Y.). Animals were housed in accordance with National Institutes of Health recommendations, maintained under a 12-hour light-dark illumination cycle, and allowed unrestricted access to food and water. IOP measurements were performed at the same time of day (2-6 PM) to minimize diurnal effects on IOP. All procedures conformed to the ARVO Statement for the Use of Animals in Ophthalmic and Vision Research.
Before all IOP measurements, mice received general anesthesia in the form of intraperitoneal ketamine (250 mg/kg), supplemented by topical proparacaine HCl (0.5%; Allergan, Hormigueros, Puerto Rico). After reaching a stable plane of anesthesia confirmed by absent response to foot pinch, the mice were secured in a surgical stereotaxic device (David Kopf Instruments, Tujunga, Calif.), with the head positioned to avoid any pressure on the animal that could affect IOP. A heating pad at 37° C. (Delta Phase Isothermal Pad, Braintree Scientific, Braintree, Mass.) maintained body temperature. Topical proparacaine supplemented general anesthesia, and corneal dehydration was prevented by topical normal saline (309 mOsm), as necessary. The ground electrode was placed on the conjunctiva of the same or the contralateral eye, carefully avoiding any pressure on the eye.
IOP was measured with the Servo-Null Micropipette System (SNMS), an electrophysiologic, nonmanometric method of measuring pressure, previously adapted and validated for measuring IOP in the mouse (Avila et al., 2001A). The exploring, 5-μm micropipette was filled with 3 M KCl solution to ensure that the resistance of the fluid within the tip was much lower than that of the extracellular fluid. The resistance to electrical flow through the micropipette was continuously monitored and was dominated by the electrical resistance at the tip.
After entry of the tip into the anterior chamber, the step change in hydrostatic pressure forced aqueous humor into the micropipette, displacing the low-resistance 3-M KCl filling solution from the tip back toward the shank. The resultant increase in electrical resistance generated a signal to a vacuum-pressure pump that produced an equal counter-pressure that maintained the position of the aqueous humor-KCl interface at the tip of the micropipette, and thus sustains the original electrical resistance. This counter-pressure equaled the hydrostatic pressure outside the micropipette tip, in this instance the IOP. […] Before every measurement, the system was calibrated externally against a mercury manometer in the range from 0 to 50 mm Hg at 5- to 10-mm Hg intervals.
The micropipettes were fabricated from borosilicate glass (1.5 mm outer diameter, 0.84 mm inner diameter, WPI) with a puller (Sutter Instruments, San Rafael, Calif.). The tips were beveled to an outer diameter of 5 μm and a 45° angle with a micropipette beveler (Sutter).
Using the SNMS as described above, the micropipette tip was next placed in the drop of proparacaine on the cornea overlying the pupil of the subject, and the output reading from the SNMS was adjusted to zero. The micropipette was then advanced across the cornea (at 20-30° to the optical axis) into the anterior chamber by a cell-penetration positioning system (model LSS 21200; Burleigh Instruments, Inc., Fishers, N.Y.) and a piezoelectric step driver (model PZ100; Burleigh). IOP was monitored after positioning the micropipette tip in the aqueous humor. The baseline IOP in the present study was 14.2±0.4 mm Hg (n=113). In measuring drug-induced changes in IOP, each animal served as its own series control. All pressures after drug application were compared with those just before the drug was added.
To determine an individual IOP reading, the mean±SEM was calculated during a 3- to 5-minute recording period. Numbers of experiments or eyes are indicated by the symbol n. […]

[2] = system: PE cells; assay: Regulatory volume increase (post-RVD RVI) of PE cells, volumetric measurements; format: cell-based, bovine
Description: Volumetric measurements were also performed to confirm that these antiports could function in parallel to transfer solution from the extracellular space into the cells.
Since paired Na^+/H^+ and Cl^−/HCO3^− exchangers were known to contribute to the regulatory volume increase (RVI) in many other cells (Hoffmann, Curr Top Membr Transp 30:125-180 (1987)), the regulatory volume increase in the PE cells was examined. However, the secondary RVI was not observed in the PE cells at room temperature. Consequently, the volumetric experiments were conducted at 34-37° C.
The precise time course of the baseline RVI was variable, so that the data of some experiments were better fit to an exponential expression, and others to a linear expression (filled circles, FIG. 2C). […] Secondary RVI was inhibited either by blocking the Na^+/H^+ antiport with 10 μM dimethylamiloride, or by omitting CO2/HCO3^− from the external solution.
Inhibitors were added at the same time that isotonicity was restored (t=24 min).

[3] = system: NHE-1; details: cited from earlier work
[4] = system: PE cells; details: applied to PE cells; cited from earlier work
[5] = system: mouse IOP; details: cited from earlier work
[6] = system: PE cells; assay: Potency of Na+/H+ antiport inhibitors applied to PE cells; format: cell-based; details: amiloride : EIPA
Description: Carbonic anhydrase inhibition reduces the rate of production of H^+ and HCO3^−, which in turn must slow the rate of delivery of H^+ and HCO3^− to all cell sites, including the antiports. […] To reach a 10-mM concentration, it was necessary to solubilize the amiloride in 30% DMSO. […] Thus, at a concentration 10 times higher than EIPA's minimal effective concentration, amiloride had no effect, consistent with the known ratio of the potency of these inhibitors (3.9:0.07 μM, or ˜56) when applied to PE cells.

[7] = single drug, topical 10-μL droplet, 100 μM
[8] = single drug, topical 10-μL droplet, 1 mM
[9] = 1st drug 1 mM topical, vs baseline
[10] = single drug, topical 10-μL droplet, 3 mM

Q: For `CCCCNc1cc(C(=O)O)cc(S(N)(=O)=O)c1Oc1ccccc1` [Bumetanide], which “change in IOP” value ([1]; 10 mM alone, 4 mice) is on record?
A: −1.0±1.1 mm Hg

Q: And the “reduction of IOP” value ([1]; 10 mM bumetanide after topical ethylisopropyl-amiloride, N=6)?
A: 4.0±0.6 mm Hg

Q: And the “ΔIOP (after 1st drug)” value ([1]; 2nd drug 10 mM (36.4 μg) after 1 mM BIIB)?
A: −3.9 ± 0.9 mm Hg

Q: What about the “ΔIOP (after 1st drug)” value ([1]; 2nd drug 10 mM (36.4 μg) after 1 mM DMA) of the same compound?
A: −3.8 ± 0.7 mm Hg

Q: And the “ΔIOP (after 1st drug)” value ([1]; 2nd drug 10 mM (36.4 μg) after 1 mM EIPA)?
A: −4.0 ± 0.6 mm Hg

Q: And the “ΔIOP (after 1st drug)” value ([1]; 2nd drug 10 mM (36.4 μg) after 55.5 mM dorzolamide)?
A: −3.9 ± 1.0 mm Hg

Q: And the “effect on IOP” value ([1]; N=8, 10 uM-10 mM concentrations in topical drops)?
A: had no significant effect on IOP

Q: What about the “effect on IOP” value ([1]; droplet concentrations of 0.1 to 10 mM (364 ng to 36.4 μg)) of the same compound?
A: had no significant effect on IOP

Q: What about the ΔIOP [1, 7] of the same compound?
A: −0.8 ± 0.7 mm Hg

Q: What about the ΔIOP [1, 8] of the same compound?
A: −0.7 ± 1.6 mm Hg

Q: And the ΔIOP ([1]; single drug, topical 10-μL droplet, 10 mM)?
A: −1.2 ± 0.6 mm Hg

Q: And the “effect on RVI” value ([2]; 10 μM, added when isotonicity restored, N=9)?
A: did not inhibit the RVI

Q: And the “effect on RVI” value ([2]; alone, in the nominal absence of CO2/HCO3−, P<0.01)?
A: substantially inhibited the RVI

Q: With `O=S(=O)(O)c1cc(N=C=S)ccc1C=Cc1ccc(N=C=S)cc1S(=O)(=O)O` [DIDS, 4,4′-diisothiocyanatostilbene-2,2′-disulfonic acid] as the compound, how does the “effect on RVI” value ([2]; 500 μM, added when isotonicity restored, N=3) read?
A: did not inhibit the RVI

Q: For `CN(C)c1nc(N)c(C(=O)N=C(N)N)nc1Cl` [DMA, dimethylamiloride], which “ΔIOP after base (1st drug)” value [1, 9] is on record?
A: −4.0 ± 0.8 mm Hg

Q: And the ΔIOP [1, 7]?
A: +0.9 ± 0.9 mm Hg

Q: What about the ΔIOP [1, 10] of the same compound?
A: −5.0 ± 0.7 mm Hg

Q: What about the “reduction of IOP of the treated eye” value ([1]; single drug, topical, 1 mM) of the same compound?
A: 3.8±0.5 mm Hg

Q: What about the “lowering of IOP” value ([1]; single drug, topical, 3 mM) of the same compound?
A: 5.0±0.7 mm Hg

Q: And the “minimally effective droplet concentration” value ([1]; topical)?
A: 1 mM

Q: And the “effect on secondary RVI” value ([2]; 10 μM, 34-37° C.)?
A: inhibited

Q: For `CCN[C@H]1C[C@H](C)S(=O)(=O)c2sc(S(N)(=O)=O)cc21` [Dorzolamide], which “ΔIOP after base (1st drug)” value ([1]; 1st drug 55.4 mM (200 μg), series followed by BIIB, n=7) is on record?
A: −3.5 ± 0.9 mm Hg

Q: And the “ΔIOP after base (1st drug)” value ([1]; 1st drug 55.5 mM (200 μg), series followed by bumetanide, n=4)?
A: −2.0 ± 0.4 mm Hg

Q: And the ΔIOP ([1]; single drug, topical 10-μL droplet, 55.4 mM (200 μg))?
A: −2.9 ± 0.6 mm Hg

Q: And the ΔIOP ([1]; single drug, topical 10-μL droplet, 55.4 mM (200 μg), listed as dorzolamide)?
A: reduces IOP

Q: With `CCN(c1nc(N)c(C(=O)NC(=N)N)nc1Cl)C(C)C` [EIPA, ethylisopropylamiloride] as the compound, how does the IC50 ([3]; Scholz et al. 1995) read?
A: 0.05 µM

Q: What about the potency [4] of the same compound?
A: 0.07 µM

Q: What about the “ΔIOP after base (1st drug)” value [1, 9] of the same compound?
A: −2.4 ± 0.6 mm Hg

Q: What about the ΔIOP [1, 7] of the same compound?
A: +0.8 ± 0.2 mm Hg

Q: And the ΔIOP [1, 8]?
A: −2.6 ± 0.5 mm Hg

Q: What about the ΔIOP [1, 10] of the same compound?
A: −4.1 ± 1.0 mm Hg

Q: And the “lowering of IOP” value ([1]; single drug, topical, 3 mM)?
A: 4.1±1.0 mm Hg

Q: And the “minimally effective droplet concentration” value ([1]; topical)?
A: 1 mM

Q: Which “lowering of mouse IOP” value ([5]; intraperitoneal) does the source give for `CC(=O)Nc1nnc(S(N)(=O)=O)s1` [acetazolamide] here?
A: 11.9±1.3 mm Hg

Q: With `Nc1ncnc2c1ncn2[C@@H]1O[C@H](CO)[C@@H](O)[C@H]1O` [adenosine] as the compound, how does the “effect on IOP in the contralateral eye” value ([5]; 100 μM, unilateral topical application) read?
A: does not alter

Q: For `N=C(N)NC(=O)c1nc(Cl)c(N)nc1N` [amiloride], which “potency at NHE-1 antiports lower than the amiloride analogues DMA and EIPA” value ([3]; Counillon et al., 2000) is on record?
A: 1 to 2 orders of magnitude

Q: And the potency [4]?
A: 3.9 µM

Q: And the “ratio of the potency of these inhibitors” value [6]?
A: ~56

Q: What about the ΔIOP ([1]; 10 mM in 30% DMSO, after pretreatment with vehicle containing 30% DMSO, n=4) of the same compound?
A: 1.0±0.7 mm Hg

Q: What about the ΔIOP [1, 8] of the same compound?
A: no significant effect on mouse IOP
